# Source: US11241483B2, “Methods of treating mild brain injury” (The Regents of the University of California, priority 2014, dated 2022)
# Entries after “also recorded” stand apart in the source; their conditions may differ. Ends that are not written are not given here.
# Legend:
# [1] = test system: oxidative burst in inflammatory cells (reactive oxygen species); experiment: Oxidative burst (ROS, DHR 123 flow cytometry) in leukocytes isolated from brain tissue after mild brain injury (controlled cortical impact); assay type: in vivo, C57/B6 mice
# Experimental: FIG. 1 depicts principle of assaying oxidative burst within inflammatory cells. Dihydrorhodamine 123 (DHR 123) diffuses across the cell membrane. When it encounters reactive oxygen species (ROS), DHR 123 is oxidized and fluoresces green. The fluorescence is then measured and presented as arbitrary fluorescence unit (AFU), wherein higher intensity means greater oxidative burst and, therefore greater concentration of amount of ROS (See Chen, et al., Measurement of oxidative burst in neutrophils,” Methods Mol Biol., 844: 115-124 (2012); which is incorporated herein by reference in its entirety).
# Ghrelin administration reduces oxidative burst in inflammatory cells following mBI. Since no well-accepted animal model exists for concussions, a very small cerebral lesion that closely mimics mBI is used as a model of mBI. […] Anesthesia is assessed by paw pinch reflex. […]
# Animals are separated into three treatment groups: 1) Sham, 2) mBI, and 3) mBI plus ghrelin. […] The fluorescence is then measured and presented as arbitrary fluorescence unit (AFU), wherein higher intensity means greater oxidative burst and, therefore greater concentration or amount of ROS. […] Oxidative burst, which is a marker for ROS, can be measured by flow cytometry (e.g., FL1 channel with 488-nm laser).
# [2] = test system: blood brain barrier (BBB) vascular permeability; Aquaporin 4 (AQP-4); experiment: Ghrelin treatment of TBI animals (background statement): BBB vascular permeability and Aquaporin 4 expression; assay type: in vivo; details: following TBI
substance,measurement,setting,value
"Gly-Ser-Ser-Phe-Leu-Ser-Pro-Glu-His-Gln-Arg-Val-Gln-Gln-Arg-Lys-Glu-Ser-Lys-Lys-Pro-Pro-Ala-Lys-Leu-Gln-Pro-Arg (SEQ ID NO. 1) (GSSFLSPEHQRVQQRKESKKPPAKLQPR; not fully specified (residues 2, 3); printed as Gly-Ser-Ser-Phe-Leu-Ser-Pro-Glu-His-Gln-Arg-Val-Gln-Gln-Arg-Lys-Glu-Ser-Lys-Lys-Pro-Pro-Ala-Lys-Leu-Gln-Pro-Arg; also: octanoyl on Ser2 and/or Ser3 stated only as an option; listed as Homo sapiens) [ghrelin, 28-amino acid peptide, neuroendocrine hormone, endogenous ligand for growth hormone secretagogue receptor; obtainable from Phoenix Pharmaceuticals]",Oxidative burst of ipsilateral whole brain following mild BI (mean fluorescence intensity),"[1]; mild BI+ghrelin (2 doses), subcutaneous 10 μg following mBI and 10 μg 1 hour after, vs 7963 AFU±2900 mild BI and 4624 AFU±1858 sham, n=5, p=0.048",3257 AFU
same,"Oxidative burst in inflammatory cells following mBI (FIG. 2, peak shift)","[1]; subcutaneous ghrelin vs untreated mBI, n=3 animals in each group",reduced the oxidative burst; also recorded: lower oxidative burst
same,Post-TBI up-regulation of Aquaporin 4 (AQP-4),[2],prevents post-TBI up-regulation of Aquaporin 4
